Laboratory results: ChEMBL document CHEMBL3045022, “The discovery of potential cyclin A/CDK2 inhibitors: a combination of 3D QSAR pharmacophore modeling, virtual screening, and molecular docking studies” (Med Chem Res, 2013)

Molecular target: Cyclin-dependent kinase 2/cyclin A (Homo sapiens, UniProt P24941)
Experiment: Inhibition of CDK2/cyclinA (unknown origin)
Type: protein-complex assay

Row | Compound | IC50
1 | COc1cccc(Nc2ncc(N=O)c(OCC3CCCCC3)n2)c1 | 0.34 µM
2 | O=Nc1cnc(Nc2cccc(Br)c2)nc1OCC1CCCCC1 | 0.5 µM
3 | Brc1cccc(Nc2nccc(OCC3CCCCC3)n2)c1 | 26 µM
4 | Nc1nc(Nc2ccc(C(=O)O)cc2)nc(OCC2CCCCC2)c1C=O | 0.61 µM
5 | COc1ccc(Nc2nc(N)c(C=O)c(OC(C)C)n2)cc1 | 1.8 µM
6 | COc1ccc(Nc2nc(N)c(/C=N/O)c(OCC3CCCCC3)n2)cc1 | 8.3 µM
7 | N#CCc1ccc(Nc2nc(N)cc(OCC3CCCCC3)n2)cc1 | 24 µM
8 | O=Nc1cnc(Nc2ccc(S(=O)(=O)NCC3CCCO3)cc2)nc1OCC1CCCCC1 (stereo not drawn) | 0.0081 µM
9 | O=Nc1cnc(Nc2ccc(S(=O)(=O)Nc3nccs3)cc2)nc1OCC1CCCCC1 | 0.019 µM
10 | CC(C)Oc1nc(Nc2ccc(S(N)(=O)=O)cc2)nc(N)c1C=O | 0.026 µM
11 | NC(=O)c1ccc(Nc2ncc(N=O)c(OCC3CCCCC3)n2)cc1 | 0.034 µM
12 | O=Nc1cnc(Nc2cccc(CO)c2)nc1OCC1CCCCC1 | 0.045 µM
13 | CCOc1nc(Nc2ccc(S(N)(=O)=O)cc2)nc(N)c1C=O | 0.049 µM
14 | CCN(CC)S(=O)(=O)c1ccc(Nc2ncc(N=O)c(OCC3CCCCC3)n2)cc1 | 0.086 µM
15 | CC[C@@H](C)Oc1nc(Nc2ccc(S(N)(=O)=O)cc2)ncc1C=O | 0.0131 µM
16 | Nc1nc(Nc2ccc(S(N)(=O)=O)cc2)nc(OCC2CCCCC2)c1C=O | 0.049 µM
17 | Nc1nc(Nc2ccc(S(N)(=O)=O)cc2)nc(OCC2CCCCC2)c1/C=N/O | 0.117 µM
18 | CCN(CC)C(=O)c1ccc(Nc2nc(N)c(N=O)c(OCC3CCCCC3)n2)cc1 | 0.2 µM

Now from value to molecule:

Row | IC50 | Compound
19 | 0.11 µM | Nc1nc(Nc2ccc(C(=O)O)cc2)nc(OCC2CCCCC2)c1N=O
20 | 1.9 µM | CCOc1nc(Nc2ccc(OC)cc2)nc(N)c1C=O
21 | 8.3 µM | Nc1nc(N)c([N+](=O)[O-])c(OCC2CCCCC2)n1
22 | 56.3 µM | Nc1nc(N)c(-c2ccco2)c(OCC2CCCCC2)n1
23 | 55 µM | Nc1nc(N)c(-c2cccs2)c(OCC2CCCCC2)n1
24 | 61 µM | N#Cc1c(N)nc(N)nc1OCC1CCCCC1
25 | 79 µM | COc1nc(N)nc(N)c1N=O
26 | 0.033 µM | N#CCc1cccc(Nc2nc(N)c(N=O)c(OCC3CCCCC3)n2)c1
27 | 0.093 µM | CCOc1nc(Nc2ccc(S(N)(=O)=O)cc2)nc(N)c1N=O
28 | 0.4 µM | CSc1cccc(Nc2nc(N)c(N=O)c(OCC3CCCCC3)n2)c1
